Source: patent publication US7196110B2, “N-substituted tricyclic 3-aminopyrazoles as inhibitors for the treatment of cell proliferative disorders” (Janssen Phamaceutica N.V., priority 2002, dated 2007)
Where two headings read alike, the source gives them in different places.

Biological target: T1, PDGF-receptor beta enzyme comprising the tyrosine kinase domain (Homo sapiens, UniProt P09619)
T1 construct: from amino acid 545 to 1106 of GenBank Access NO: AAA36427
Assay: Inhibition of PDGF-receptor kinase activity (cell-free, PLC1 peptide, 33P Flashplate)
Format: biochemical
Details: for inhibition at 10 µM: compound at 10 uM, read-out: Percent Inhibition @ 10 uM
Procedure: PDGF-R kinase activity was assayed by its ability to phosphorylate one of its target proteins, PLCγ, in a cell-free system, in particular, a PLC1 peptide comprising the tyrosine residue where the phosphorylation occurs was used for the assay.
10× Kinase Buffer (500 mM Tris-HCl pH=8, 100 mM MgCl2, 1 mM Na3VO4); 10 mM DTT (final concentration at 1 mM in assay); 10 mM ATP (final concentration at 5 μM in assay); ^33P-γ-ATP (Cat. No.: NEG/602H. 2000-3000 Ci/mmol) purchased from NEN; Purified, soluble, recombinant PDGF-receptor beta enzyme comprising the tyrosine kinase domain (from amino acid 545 to 1106 of GenBank Access NO: AAA36427 ) at 0.4 mg/mL; Enzyme Dilution Buffer (50 mM Tris-HCl pH=8.0, 0.1% BSA); Wash/Stop Buffer (PBS +100 mM EDTA); NEN Streptavidin Flashplates (Cat. No.: SMP-103) which binds to the biotinylated PLC1 peptide but not the PDGF-R enzyme; PLC1 peptide (Biotin-[…]-Amide) at 1 mM in 50 mM Tris-HCL with pH of 8.0.
Reagents were first mixed according the following regimen:
The above reaction mixture was dispensed into each well of a Flashplate at 70 μl/well. To test the effect of a compound on PDGF-R kinase activity, the test compound either in a fixed concentration or in serially diluted concentrations in 100% DMSO was added to appropriate wells at 1 μl/well.
Enzyme PDGF-R was diluted in Enzyme dilution buffer as following:
The kinase reaction was initiated by adding 30 μl of diluted PDGF-R enzyme solution to each well on the Flashplate containing hot ATP and PLC1, except wells of column 12 rows E through H, which were used to calculate the plate background. The Flashplate was swirled to mix and was incubated at 30° C. for 60 minutes. Then, the reaction mixture was discarded and the Flashplate was washed 3 times each with 200 μl Wash/Stop Buffer. Subsequently, each well on the Flashplate was filled with 200 μl of Wash/Stop buffer. The amount of ^33P retained in each well was measured using a Packard TopCount after the plate was sealed with a transparent plate sealer.
The percentage of inhibition of the test compound on PDGF-R kinase activity is defined as […].
In order to test the potency of inhibition of present compounds, an IC50 for an individual compound was measured using the above procedure. As used herein, the IC50 for PDGF-R kinase activity refers to the concentration of an inhibitor at which the activity of the PDGF-R kinase is reduced by one-half as compared with reactions containing no inhibitor.

[1] = PDGF-R kinase activity, read-out: IC50
[2] = read-out: IC50 (μM) on PDGF-R kinase activity

T1 sequence (P09619 545-1106): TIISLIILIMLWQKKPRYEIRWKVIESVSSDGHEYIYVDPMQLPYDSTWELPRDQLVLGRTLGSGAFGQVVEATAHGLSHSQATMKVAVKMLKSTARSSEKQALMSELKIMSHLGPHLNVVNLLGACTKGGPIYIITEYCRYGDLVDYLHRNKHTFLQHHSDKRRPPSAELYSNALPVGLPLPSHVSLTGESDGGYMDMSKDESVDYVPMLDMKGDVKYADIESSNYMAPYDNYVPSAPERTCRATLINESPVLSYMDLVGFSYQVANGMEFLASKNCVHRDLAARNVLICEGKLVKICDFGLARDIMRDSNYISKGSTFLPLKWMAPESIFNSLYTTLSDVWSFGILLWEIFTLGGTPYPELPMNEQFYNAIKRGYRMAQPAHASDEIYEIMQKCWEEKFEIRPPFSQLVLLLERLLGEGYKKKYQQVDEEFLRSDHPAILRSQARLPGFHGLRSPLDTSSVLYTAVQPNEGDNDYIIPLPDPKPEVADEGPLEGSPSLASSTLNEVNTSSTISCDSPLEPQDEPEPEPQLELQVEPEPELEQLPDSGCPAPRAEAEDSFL

Structure (SMILES) | inhibition at 10 µM (PDGF-R kinase activity) | IC50 [1] | IC50 [2]
CCOC(=O)c1cccc(Nc2[nH]nc3c2Cc2cc(OC)c(OC)cc2-3)c1 [Compound 210, 3-(6,7-Dimethoxy-2,4-dihydro-indeno[1,2-c]pyrazol-3-ylamino)-benzoic acid ethyl ester] | 90% | 0.0672 µM | –
COc1cc2c(cc1OC)C(C)c1c-2n[nH]c1NCc1c(Cl)cccc1Cl (single isomer, unassigned) [Compound 586, (2,6-Dichloro-benzyl)-(6,7-dimethoxy-4-methyl-2,4-dihydro-indeno[1,2-c]pyrazol-3-yl)-amine] | 100% | – | 0.0278 µM
COCCCOc1ccc2c(c1)Cc1c-2n[nH]c1Nc1ccc(OC)cc1 [Compound 143, (4-Methoxy-phenyl)-[6-(3-methoxy-propoxy)-2,4-dihydro-indeno[1,2-c]pyrazol-3-yl]-amine] | 67% | 8.12 µM | –
c1cncc(Nc2[nH]nc3c2Cc2sccc2-3)c1 [Compound 402, (5,7-Dihydro-1-thia-4,5-diaza-cyclopenta[a]pentalen-6-yl)-pyridin-3-yl-amine] | 90% | 0.196 µM | –
Cc1ccc2c(c1)-c1n[nH]c(NCc3ccc(C)c(Cl)c3)c1C2 [Compound 315, (3-Chloro-4-methyl-benzyl)-(7-methyl-2,4-dihydro-indeno[1,2-c]pyrazol-3-yl)-amine] | 17.5% | 1.92 µM | –
COc1cc2c(cc1OC)-c1n[nH]c(Nc3ccccc3Br)c1C2 [Compound 43, (2-Bromo-phenyl)-(6,7-dimethoxy-2,4-dihydro-indeno[1,2-c]pyrazol-3-yl)-amine] | 60% | 0.195 µM | –
CCC1c2cc(OC)c(OC)cc2-c2c1c(Nc1cccc(Br)c1)nn2C(=O)COC (stereo not shown) [Compound 514, 1-[3-(3-Bromo-phenylamino)-4-ethyl-6,7-dimethoxy-4H-indeno[1,2-c]pyrazol-1-yl]-2-methoxy-ethanone] | 85% | 0.24 µM | –
CCOc1cccc(Nc2[nH]nc3c2C(C)c2cc(OCC)c(OCC)cc2-3)c1 (stereo not shown) [Compound 504, (6,7-Diethoxy-4-methyl-2,4-dihydro-indeno[1,2-c]pyrazol-3-yl)-(3-ethoxy-phenyl)-amine] | 101% | 0.142 µM | –
CNC(=O)CCCC(=O)n1nc(Nc2cccc(F)c2)c2c1-c1cc(OC)c(OC)cc1C2 [Compound 506, 5-[3-(3-Fluoro-phenylamino)-6,7-dimethoxy-4H-indeno[1,2-c]pyrazol-1-yl]-5-oxo-pentanoic acid methylamide] | 97% | 0.0294 µM | –
CCC1c2cc(OC)c(OC)cc2-c2nn(C(=O)COC)c(Nc3cccc(Br)c3)c21 (stereo not shown) [Compound 515, 1-[3-(3-Bromo-phenylamino)-4-ethyl-6,7-dimethoxy-4H-indeno[1,2-c]pyrazol-2-yl]-2-methoxy-ethanone] | 90% | 0.136 µM | –
COc1cc2c(cc1OC)-c1n[nH]c(Nc3ccc(Cl)cc3)c1C2 [Compound 5, (4-Chloro-phenyl)-(6,7-dimethoxy-2,4-dihydro-indeno[1,2-c]pyrazol-3-yl)-amine] | 91% | – | –
CCOc1cc2c(cc1OCC)C(C)c1c-2n[nH]c1Nc1cccc(Br)c1 (stereo not shown) [Compound 346, (3-Bromo-phenyl)-(6,7-diethoxy-4-methyl-2,4-dihydro-indeno[1,2-c]pyrazol-3-yl)-amine] | 98% | 0.0739 µM | –
CCC1c2cc(OC)c(OC)cc2-c2n[nH]c(NCc3c(Cl)cccc3Cl)c21 (single isomer, unassigned) [Compound 585, (2,6-Dichloro-benzyl)-(4-ethyl-6,7-dimethoxy-2,4-dihydro-indeno[1,2-c]pyrazol-3-yl)-amine] | 102% | – | 0.429 µM
COC(=O)n1nc2c(c1Nc1cccc(F)c1)Cc1cc(OC)c(OC)cc1-2 [Compound 434, 3-(3-Fluoro-phenylamino)-6,7-dimethoxy-4H-indeno[1,2-c]pyrazole-2-carboxylic acid methyl ester] | 86% | 0.503 µM | –
OCCCOc1cccc2c1Cc1c-2n[nH]c1Nc1cccc(F)c1 [Compound 442, 3-[3-(3-Fluoro-phenylamino)-2,4-dihydro-indeno[1,2-c]pyrazol-5-yloxy]-propan-1-ol] | 94.5% | 0.205 µM | –
Cc1cccc2c1Cc1c-2n[nH]c1Nc1cccc(F)c1 [Compound 99, (3-Fluoro-phenyl)-(5-methyl-2,4-dihydro-indeno[1,2-c]pyrazol-3-yl)-amine] | 87.5% | 1.47 µM | –
CN(C)CCCOc1cccc2c1Cc1c-2n[nH]c1Nc1cccc(Cl)c1 [Compound 72, (3-Chloro-phenyl)-[5-(3-dimethylamino-propoxy)-2,4-dihydro-indeno[1,2-c]pyrazol-3-yl]-amine] | 96% | 0.283 µM | –
Fc1cccc(Nc2[nH]nc3c2Cc2cc(Cl)ccc2-3)c1 [Compound 191, (6-Chloro-2,4-dihydro-indeno[1,2-c]pyrazol-3-yl)-(3-fluoro-phenyl)-amine] | 88% | 0.0686 µM | –

Further lines, results first:

inhibition at 10 µM (PDGF-R kinase activity) | IC50 [1] | IC50 [2] | Structure (SMILES)
94% | 1.1 µM | – | COc1ccc(OC)c(Nc2[nH]nc3c2Cc2ccc(C)cc2-3)c1 [Compound 184, (2,5-Dimethoxy-phenyl)-(7-methyl-2,4-dihydro-indeno[1,2-c]pyrazol-3-yl)-amine]
38% | 1.05 µM | – | CC1c2ccccc2-c2n[nH]c(Nc3ccc(F)cc3)c21 (stereo not shown) [Compound 106, (4-Fluoro-phenyl)-(4-methyl-2,4-dihydro-indeno[1,2-c]pyrazol-3-yl)-amine]
88.5% | 0.0136 µM | – | COc1cc2c(cc1OC)-c1c(c(Nc3cccc(F)c3)nn1COC(C)=O)C2 [Compound 496, Acetic acid 3-(3-fluoro-phenylamino)-6,7-dimethoxy-4H-indeno[1,2-c]pyrazol-1-ylmethyl ester]
36% | 0.666 µM | – | Cc1cccc2c1Cc1c-2n[nH]c1Nc1ccc(OC(F)(F)F)cc1 [Compound 104, (5-Methyl-2,4-dihydro-indeno[1,2-c]pyrazol-3-yl)-(4-trifluoromethoxy-phenyl)-amine]
24% | – | – | COc1ccccc1CNc1[nH]nc2c1Cc1cc(OC)c(OC)cc1-2 [Compound 224, (6,7-Dimethoxy-2,4-dihydro-indeno[1,2-c]pyrazol-3-yl)-(2-methoxy-benzyl)-amine]
106% | 0.0911 µM | – | COc1cc2c(cc1OCc1ccccc1)-c1n[nH]c(Nc3cccc(F)c3)c1C2 [Compound 549, (7-Benzyloxy-6-methoxy-2,4-dihydro-indeno[1,2-c]pyrazol-3-yl)-(3-fluoro-phenyl)-amine]
72.5% | 1.19 µM | – | Fc1ccccc1CNc1[nH]nc2c1Cc1c(OCCCN3CCOCC3)cccc1-2 [Compound 416, (2-Fluoro-benzyl)-[5-(3-morpholin-4-yl-propoxy)-2,4-dihydro-indeno[1,2-c]pyrazol-3-yl]-amine]
42% | – | – | COc1cc2c(cc1OC)-c1c(c(Nc3cccc(F)c3)nn1C(=O)NCCNC(=O)c1ccccc1)C2 [Compound 532, 3-(3-Fluoro-phenylamino)-6,7-dimethoxy-4H-indeno[1,2-c]pyrazole-1-carboxylic acid (2-benzoylamino-ethyl)-amide]
18.5% | 0.00278 µM | – | COCCCOc1cc2c(cc1OCCCOC)-c1n[nH]c(Nc3cccc(Cl)c3)c1C2 [Compound 285, [6,7-Bis-(3-methoxy-propoxy)-2,4-dihydroindeno[1,2-c]pyrazol-3-yl]-(3-chloro-phenyl)-amine]
80% | 1.98 µM | – | COc1cc2c(cc1OC)-c1n[nH]c(Nc3ccc4cn[nH]c4c3)c1C2 [Compound 37, (6,7-Dimethoxy-2,4-dihydro-indeno[1,2-c]pyrazol-3-yl)-(1H-indazol-6-yl)-amine]
30% | 26.7 µM | – | COc1cc2c(cc1OC)-c1n[nH]c(Nc3ccc(N4CCN(C)CC4)cc3)c1C2 [Compound 51, (6,7-Dimethoxy-2,4-dihydro-indeno[1,2-c]pyrazol-3-yl)-[4-(4-methyl-piperazin-1-yl)-phenyl]-amine]
